# Data: patent US20240350467A1, “[6R]-MTHF IN B6 ENHANCED 5-FU BASED CHEMOTHERAPY OF PANCREATIC CANCER” (Isofol Medical AB, priority 2023, published 2024)
# Like-named read-outs stand apart in the source and are kept apart here.
# How the values were obtained:
# [1] = [6R]-MTHF levels after arfolitixorin versus comparable leucovorin treatment; format: in vivo
# Text: Leucovorin and l-leucovorin, both currently approved for treatment of gastrointestinal and other cancers, need to be metabolically activated to [6R]-MTHF to potentiate the effect of 5-FU. This dependency on cellular activation provides a hurdle for reaching sufficient levels of the active [6R]-MTHF. […] Secondly, the enzymatic activation is genetically regulated^16,18, and is therefore associated with variability between individuals and conditions. Arfolitoxirin is believed to be efficacious in a larger proportion of patients with less inter- and intra-individual variability. These differences may potentially turn out to be of significant importance for increased clinical efficacy in 5-FU based cancer treatment.
# [2] = Stability of [6R]-5,10-MTHF forms; format: physicochemical
# Text: Arfolitixorin (former Modufolin®) is a folate-based biomodulator developed by applicant to improve the outcome of a range of antimetabolite treatments used within oncology. One of the therapeutic areas of specific interest included in the development program of arfolitixorin is as biomodulator of 5-fluorouracil (5-FU) activity in standard treatment regime for advanced, metastatic CRC, such as Stage IV. A stable lyophilizate formulation of the naturally occurring diastereoisomeric folate [6R]-5,10-MTHF has successfully been made from the drug substance arfolitixorin hemisulfate. […] As mentioned in the background section of the present application, [6R]-5,10-methylenetetrahydrofolate, abbreviated herein as [6R]-5,10-MTHF, needs to be metabolically formed when using the widely used folate-based drugs leucovorin and levoleucovorin.
# [3] = cited from earlier work
# [4] = cited from earlier work; remark: listed apart in the source
# [5] = in vivo; cited from earlier work
# [6] = test system: metastatic pancreatic cancer; details: PRODIGE 4, 342 patients enrolled; cited from earlier work
# [7] = test system: metastatic pancreatic cancer; details: MPACT study; cited from earlier work
# [8] = test system: metastatic pancreatic cancer; details: standard first-line treatment until 2011; cited from earlier work
# [9] = in vitro; cited from earlier work
compound,measurement,setting,value
"Nc1nc2c(c(=O)[nH]1)N1CN(c3ccc(C(=O)N[C@@H](CCC(=O)O)C(=O)O)cc3)C[C@H]1CN2 [Arfolitixorin, [6R]-5,10-methylenetetrahydrofolate]",[6R]-MTHF levels relative to comparable treatment with leucovorin,[1],3-4 times
same,stability,[2],very unstable
Cc1ncc(CO)c(CO)c1O.Cl [Pyridoxine hydrochloride],solubility in water,[3],One gram dissolves in 5 mL of water
same,stability in air,[4]; air,stable in air
same,stability to sunlight,[4]; sunlight,slowly affected by sunlight
Nc1nc2c(c(=O)[nH]1)N1CN(c3ccc(C(=O)N[C@@H](CCC(=O)O)C(=O)O)cc3)C[C@H]1CN2.Nc1nc2c(c(=O)[nH]1)N1CN(c3ccc(C(=O)N[C@@H](CCC(=O)O)C(=O)O)cc3)C[C@H]1CN2.O=S(=O)(O)O [arfolitixorin hemisulfate],stability,[2],unexpectedly stable salt
Nc1nc2c(c(=O)[nH]1)N(C=O)[C@H](CNc1ccc(C(=O)N[C@@H](CCC(=O)O)C(=O)O)cc1)CN2 [d-LV],excretion by the kidneys,[5],slowly excreted
Nc1ccn([C@@H]2O[C@H](CO)[C@@H](O)C2(F)F)c(=O)n1 [gemcitabine],median overall survival (mOS),[6],6.8 months
same,objective response rate (ORR),[6],9.4%
same,ORR,[7],7%
same,mOS,[7],6.7 months
same,median overall survival (mOS),[8],about 6 months
"Nc1nc(=O)c2c([nH]1)NC[C@H](CNc1ccc(C(=O)N[C@@H](CCC(=O)O)C(=O)O)cc1)N2C=O [l-LV, [6S]-5-formyl-THF]",conversion to methyl-tetrahydrofolate form,[9],rapidly converted
FOLFIRINOX,median overall survival (mOS),[6],11.1 months
same,objective response rate (ORR),[6],31.6%
